Reference: paper PMC7053805 (Toxicology in vitro : an international journal published in …, 2019)
Where two headings read alike, the source gives them in different places.

Assays:
[1] = cited from earlier work
[2] = Chip-to-human extrapolation; details: for predicted renal clearance/GFR ratio from the chip: Chip+Model, ETS=0
[3] = tested on: Primary human renal proximal tubule epithelial cells (RPTECs); details: for total amount of cadmium assumed accumulated in RPTECs: estimated from measured uptake
[4] = smelter workers; ref Ellis et al. (1981); cited from earlier work
[5] = Rapid equilibrium dialysis; details: for protein binding in the culture media: serum-supplemented media, rapid equilibrium dialysis
[6] = human; cited from earlier work
[7] = serum
in vitro [8] = test: in vitro
in vitro [9] = details: human
[10] = human, indicated by in vivo renal clearance data; ref Contrepois et al., 1985; cited from earlier work
[11] = tested on: canine renal tubule cells; details: ref MacKay et al., 1998, cited from earlier work
[12] = effluent compared against stock solutions
[13] = kidney tubule chip, adjusted for non-specific binding, both concentrations

**Q.** Which geometric blood level ([1]; general population (≥1 year of age) in the USA, ref Agency for Toxic Substances and Disease Registry) does the source give for `[Cl][Cd][Cl]` [Cadmium, cadmium chloride] here?
**A.** Its geometric blood level is ~ 0.002 μM.

**Q.** And the Cmax ([1]; general population, Nigeria, ref Alli, 2015)?
**A.** The Cmax was ~100 nM.

**Q.** What about the Cmax ([1]; human occupational, Nigeria, ref Alli, 2015) of the same compound?
**A.** The Cmax was ~1000 nM.

**Q.** What about the “predicted renal clearance/GFR ratio from the chip” value ([2]; cadmium 0.05 μM (free 0.0145 μM)) of the same compound?
**A.** Its value is 0.14±0.05.

**Q.** What about the “predicted renal clearance/GFR ratio from the chip” value ([2]; cadmium 0.5 μM (free 0.209 μM)) of the same compound?
**A.** Its value is 0.39±0.17.

**Q.** And the “back-calculated Cu/Cf in the chip” value ([2]; from in vivo modeled CLR/GFR ratio 0.26 (cadmium, lower concentration))?
**A.** Its value is 68%.

**Q.** What about the “back-calculated Cu/Cf in the chip” value ([2]; from in vivo modeled CLR/GFR ratio 0.29 (cadmium, higher concentration)) of the same compound?
**A.** Its value is 71%.

**Q.** What about the “total amount of cadmium assumed accumulated in RPTECs” value ([3]; after 22 days at 0.05 μM) of the same compound?
**A.** Its value is 3.2 µg/g.

**Q.** What about the “total amount of cadmium assumed accumulated in RPTECs” value ([3]; after 22 days at 0.5 μM) of the same compound?
**A.** Its value is 16.5 µg/g.

**Q.** What about the “uptake/reabsorption within the kidney tubule chip” value [3, 12] of the same compound?
**A.** The value was “uptake”.

**Q.** What about the “reabsorption (loss) from adjusted Cout/Cin” value [3, 13] of the same compound?
**A.** The value was 24-43%.

**Q.** And the “concentrations in human kidney” value [4]?
**A.** The value was “up to 400 μg/g”.

**Q.** And the “fraction protein-bound in the culture media” value ([5]; binding to serum proteins in culture media)?
**A.** The value was “up to 71%”.

**Q.** Which Cmax ([1]; human, reported range, ref Verschraagen et al., 2003) does the source give for `N.N.[Cl][Pt][Cl]` [Cisplatin, cisplatin] here?
**A.** The Cmax was 1400 to 13900 nM.

**Q.** And the “recovery from effluent samples” value ([3]; cell-seeded chip, at equilibrium)?
**A.** Its value is ~100%.

**Q.** What about the “uptake/reabsorption within the kidney tubule chip” value [3, 12] of the same compound?
**A.** The value was “little uptake”.

**Q.** What does the source list for `CN1CC(=O)NC1=N` [Creatinine, creatinine]?
**A.** reabsorption (loss) from adjusted Cout/Cin ([3]; human): 0-5%; fraction unbound [5]: 0.934 ± 0.06; protein binding in the culture media [5]: minimal protein binding

**Q.** For `CNC(C)C1CCC(N)C(OC2C(N)CC(N)C(OC3OCC(C)(O)C(NC)C3O)C2O)O1` (stereo not drawn) [Gentamicin, gentamicin], which “serum protein binding” value [6] is on record?
**A.** The value was “no serum protein binding”.

**Q.** What about the “protein binding in the culture media” value [7] of the same compound?
**A.** Its value is “minimal protein binding”.

**Q.** And the fraction unbound (in vitro [8]; Free fraction in cell culture media)?
**A.** Its fraction unbound is 0.897 ± 0.005.

**Q.** And the Cmax ([1]; human, in vivo)?
**A.** Its Cmax is ~50000 nM.

**Q.** And the serum concentrations ([1]; in vivo)?
**A.** The serum concentrations was 5300 ± 1300 ng/mL.

**Q.** And the “uptake/reabsorption within the kidney tubule chip” value [3]?
**A.** Its value is “little uptake”.

**Q.** And the “reabsorption (loss) from adjusted Cout/Cin” value ([3]; human)?
**A.** The value was 0-5%.

**Q.** What about the “net uptake by the RPTECs” value ([3]; tissue chip, on average, 200 and 600 μM) of the same compound?
**A.** The value was < 0.5%.

**Q.** And the recovery (in vitro [9])?
**A.** The recovery was ~100%.

**Q.** What about the re-absorption in vivo [10] of the same compound?
**A.** Its re-absorption in vivo is “around 20%”.

**Q.** Which fraction unbound (in vitro [8]) does the source give for `O=C(O)C(F)(F)C(F)(F)C(F)(F)C(F)(F)C(F)(F)C(F)(F)C(F)(F)F` [PFOA, perfluorooctanoic acid] here?
**A.** The fraction unbound was 0.986 ± 0.149.

**Q.** What about the blood levels ([1]; occupationally exposed subjects, ref ATSDR, 2018) of the same compound?
**A.** Its blood levels is ≤ 24200 nM.

**Q.** What about the “uptake/reabsorption within the kidney tubule chip” value [3, 12] of the same compound?
**A.** The value was “uptake”.

**Q.** What about the “reabsorption (loss) from adjusted Cout/Cin” value [3, 13] of the same compound?
**A.** Its value is 3-13%.

**Q.** And the “protein binding in the culture media” value [5]?
**A.** Its value is “minimal protein binding”.

**Q.** Which results are given for inulin?
**A.** recovery in luminal effluent ([11]; bioreactor with confluent cells): ≥ 98.9%; recovery in luminal effluent ([11]; blank devices): ≤ 7.4%
